According to publication PMC12645191, “Dicarboxylate and dicarboxylic acid appended supramolecular self-associating amphiphiles as antimicrobial agents against high priority bacterial pathogens” (Organic & Biomolecular Chemistry, 2025):
≈ marks a conversion by molar mass, not a printed value. Where “and” joins values, the source holds several entries; their conditions need not be identical. Identical values can stand only once. Like-named read-outs stand apart in the source and are kept apart here.

Columns and labels:
[1] = quantitative (Q) 1H NMR spectroscopy, proportion of SSA becoming NMR silent (higher-order aggregates); format: physicochemical
Procedure: To confirm the presence of higher order self-associative structures quantitative (Q) ^1H NMR spectroscopy studies were undertaken at 5.6 mM in D2O 5% EtOH. Here the ^1H NMR resonances attributed to the EtOH are used as an internal standard.
Table S1 – Overview of results of the quantitative (Q) 1H NMR studies for 1, 3, 5, 7 and 9
5.0 % EtOH . Values given in % represent the observed proportion of the SSA that has become
Table S2 – Overview of results of the quantitative (Q) 1H NMR studies for 2, 4, 6, 8 and 10
5.0 % EtOH. Values given in % represent the observed proportion of anion and cation that has

[2] = protein binding in human plasma by equilibrium dialysis; format: in vitro ADME; details: human plasma, 5 µM, 37 °C; for recovery at 6 h, 5 µM / remaining at 6 h, 5 µM / fraction unbound at 6 h, 5 µM: human; for remaining at 6 h, 5 µM / fraction unbound at 6 h, 5 µM: plasma
Procedure: Metabolic stability was assessed in mouse and rat liver microsomes. […] A plasma protein binding assay was performed to assess the extent of compound binding to plasma proteins. This is key as only unbound compound is free to distribute and exert a pharmacological effect. […] To assess the potential for this sub-class of SSAs to be developed as drugs for oral administration, Caco-2 permeability assays were also performed, as a cellular model indicative of human intestinal permeability. […] The […] MS/MS analysis. Samples were analysed using a Shimadzu liquid chromatography system coupled to a Triple Quad 6500+ mass spectrometry (AB Inc.) Separation of compounds was achieved using an HSS T3 column (50 x 2.1 mm) at a temperature of 40 °C and a binary mobile phase gradient at a flow rate of 0.7 mL/min. […] This was ramped to 95 % solvent B at 0.7 minutes, held for 0.5 minutes and then […] returned to initial conditions. Sample analysis was by electrospray ionisation. Protein Binding Measurements in Human Plasma by Using Equilibrium Dialysis Method : The fraction unbound in human plasma (P -KB, Ltd People's hospital of Shandong) were measured using 96-well Equilibrium Dialysis Plate (HTDialysis LLC, Gales Ferry, CT). Human plasma containing 5 μM test compound were dialysed against dialysis buffer (PBS) with initial samples taken to allow for assessment of plasma stability and recovery before the plate was incubated for 6 hours at 37 °C at 5 % CO2. Samples were removed at 6 hours, and all samples […] appropriate analytical internal standard. Samples were centrifuged at 3,220 g for 30 minutes (Eppendorf 5810R) to precipitate protein and enable sampling of supernatant prior to appropriate dilution for liquid chromatography mass -spectrometry (LC-MS/MS) analysis. Samples were analysed using a Shimadzu coupled to a triple Quad 6500 + (AB Inc., Illinois). Separation of analytes was achieved using a Xselect Hss T3 (2.1 x 50 mm) column at a temperature of 40 °C and a binary mobile phase gra dient at a flow rate of 0.8 mL/min. Initial […] formic acid in acetonitrile); this was ramped to 98 % B at 0.5 min, held for 0.4 min and then immediately returned to initial conditions. Sample analysis was by electrospray ionisation in positive ion mode. Bi-directional Permeability in Caco-2 Cell Line: The bi-directional permeability in Caco-2 cell lines was determined by seeding cells onto an HTS Transwell plate. Cells were cultivated for 14-18 days in a cell culture incubator at 37 °C, 5 % CO2, 95 % relative humidity. Cell culture medium was replaced every other day. To assess monolayer integrity the transepithelial electrical resistance (TEER) across the monolayer was measured using Millicell Epithelial volt-ohm meter prior to assay and Lucifer yellow (LY) fluorescence measurement post-assay. Test and control compounds were prepared in DMSO and diluted in Hank's Balanced Saline […] Compound was added to the donor compartment of the transwell plate for both apical to basolateral (A>B) and basolateral to apical (B>A) measurements, with blank HBSS being added to the receiver compartment. The transwell plate was then incubated at 37 °C, 5 % CO2 for 2 hours. 5

[3] = kinetic solubility determination in PBS pH 7.4; details: upper limit set at 300 µM; for solubility: PBS, pH 7.4, aqueous buffer, kinetic from dmso stock, Solubility in PBS pH 7.4, kinetic
P. aeruginosa PAO1 = test: inhibition of bacterial growth, OD600 after 20 h; format: cell-based, Pseudomonas aeruginosa; details: SSA 5.0 mM, 2.5% ethanol, negative = enhanced growth
Procedure: With the self-associative properties of 1–10 established, the antimicrobial activity of these SSAs were determined against a panel of clinically relevant, high-priority pathogens including: P. aeruginosa PAO1; Klebsiella pneumonia (K. pneumoniae) M6; E. coli NCTC 12923; Acinetobacter baumannii (A. baumannii) ATCC 17978; S. aureus ATCC 9144; Enterococcus faecalis (E. faecalis) NCTC 775; and Enterococcus faecium (E. faecium) NCTC 12204. […] However, it should be noted that the SSA stock solution was prepared in a H2O 5% EtOH solution, to ensure that the SSA aggregates formed were in line with those characterised within the scope of the SSA self-association studies.
Section 3: Biological methods
These methods were taken directly from UK Health and Security Office (UKHSA) standard […]
Preparation of Luria Broth media (LB): Yeast extract (5.0 g), tryptone (10.0 g) and sodium chloride (10.0 g) were dissolved in dH₂O (1.0 L) then divided into bottles and autoclaved.
Preparation of Luria Broth (LB) agar plates: Agar (6.0 g) was added to LB (400 mL) and autoclaved. Once cool, the LB agar was poured into sterile petri dishes under sterile conditions and allowed to set. LB plates were stored at 4 °C until use.
Preparation of bacterial plates: Sterile LB agar plates were streaked using streaked using the desired bacteria i) Pseudomonas aeruginosa (P.aeruginosa) PAO1, ii) Klebsiella pneumoniae (K. pneumoniae) M6 iii) E. coli NCTC 12923 and iv) Acinetobacter baumannii (A. baumannii) ATCC 17978 and Gram-positive i) Staphylococcus aureus (S. aureus) ATCC 9144 ii) Enterococcus faecalis (E. faecalis) NCTC 775 and iii) Enterococcus faecium (E. faecium ) NCTC 12204, then incubated at 37 °C overnight.
Preparation of Inoculum: An initial culture was made up by inoculating LB media (5 mL) with a single colony of bacteria under sterile conditions and incubated at 37 °C with shaking overnight. The following day, overnight bacterial cultures were subcultured into fresh LB medium to a starting OD600 of 0.01.
Preparation of 96 well microplate for MIC50: The 1:100 cell suspension (150 µL) was dispensed into individual wells under sterile conditions. SSAs (30 µL) were added to the wells to equal a total volume of 180 µL in the wells. Six repeats of each concentration for each SSA were created each plate. The plates were sealed using parafilm, then incubated at 37 °C in a microplate reader for 20 hours. OD600 endpoint data was used to generate growth curves. […]

[4] = 6 hours, read-out: % Bound (converted)

| (Q) 1H NMR spectroscopy, proportion NMR silent, acid or anion ([1]; 5.6 mM, D2O 5.0% EtOH, 298 K, listed as 9) | recovery at 6 h, 5 µM ([2]; 6 hours) | remaining at 6 h, 5 µM [2] | fraction unbound at 6 h, 5 µM [2, 4] | fraction unbound at 6 h, 5 µM ([2]; 6 hours, read-out: % Unbound) | solubility [3] | (Q) 1H NMR spectroscopy, proportion NMR silent, acid or anion ([1]; 5.6 mM, D2O 5.0% EtOH, 298 K) | (Q) 1H NMR spectroscopy, proportion NMR silent, cation ([1]; 5.6 mM, D2O 5.0% EtOH, 298 K) | (Q) 1H NMR, proportion NMR silent, SSA acid or anion ([1]; ~112 mM, DMSO-d6 1.0% DCM) | (Q) 1H NMR, proportion NMR silent, cation ([1]; ~112 mM, DMSO-d6 1.0% DCM) | % Remaining at 6 hr [2] | % Bound ([2]; 6 hours) | % Recovery ([2]; 6 hours) | % Unbound ([2]; 6 hours) | Solubility in PBS pH 7.4 ([3]; kinetic) | (Q) 1H NMR spectroscopy, proportion NMR silent, acid or anion ([1]; 5.6 mM, D2O 5.0% EtOH, 298 K, listed as 3) | SMILES | Percentage inhibition of bacterial growth, PAO1 (P. aeruginosa) (P. aeruginosa PAO1) | Percentage inhibition of bacterial growth, PAO1 (P. aeruginosa) (P. aeruginosa PAO1; listed as 3) |
| --- | --- | --- | --- | --- | --- | --- | --- | --- | --- | --- | --- | --- | --- | --- | --- | --- | --- | --- |
| 40.9% and 41% | 94.9% | 106% | 0.166 | 0.166 | 305 µM (≈ 105 µg/mL) | – | – | – | – | – | – | – | – | – | – | O=C(O)CC[C@H](NC(=O)Nc1ccc(Br)cc1)C(=O)O [SSA 9] | – | – |
| – | – | – | – | – | – | 39.8% and ~40% | 36.3% and 36% | 0% | 0% | 108.64% | 78.73% | 97.50% | 21.27% | 297.29 μM | – | O=C(O)CC[C@H](NC(=O)Nc1ccc(C(F)(F)F)cc1)C(=O)O [SSA 2] | -11.25% and −11% | – |
| – | 99.6% | 102% | 0.23 | 0.23 | 310 µM (≈ 104 µg/mL) | – | – | 0% | – | – | – | – | – | – | 34% | O=C(O)CC[C@@H](NC(=O)Nc1ccc(C(F)(F)F)cc1)C(=O)O [SSA 3] | – | -35.71% and −36% |
| – | 97.3% | 104% | 0.217 | 0.217 | 303 µM (≈ 101 µg/mL) | 38.5% and 39% | – | 0% | – | – | – | – | – | – | – | O=C(O)CC[C@H](NC(=O)Nc1ccc(C(F)(F)F)cc1)C(=O)O [SSA 1] | -28.56% and −29% | – |
